According to patent US9057727B2, “Screening methods using G-protein coupled receptors and related compositions” (The General Hospital Corporation, priority 2007, dated 2015):
Square brackets hold non-standard residues; d marks the D form. Ends that are not written are not given here. Peptide text beside a SMILES is read from it. hArg = N=C(N)NCCCC[C@H](N)C(=O)O; Aib = CC(C)(N)C(=O)O

Assays:
human PTH receptor = molecular target: T1, human PTH receptor (Homo sapiens, UniProt Q03431); test: cAMP in HRKRK-B7 cells EC50 (nM)
T1 construct: expressed in transfected cells
Source text: Table printed on a drawing sheet, Figure 25
Head of the field: cAMP in HRKRK-B7 cells EC50 (nM)
First copying reader's note: The column head prints the cell line as HRKRK-B7 while the title prints HKRK-B7.

[1] = molecular target: hPTH1R (RG form of the human PTH receptor); test: RG memb: hPTH1R+dnGS *M-PTH(1-15)
[2] = test system: PTHR-CFPIC3/YFPCT (PTHR-cam); test: FRET analysis of ligand binding/receptor activation in HEK-293 cells; type: cell-based, human
human PTH1 receptor = molecular target: T2, human PTH1 receptor (Homo sapiens, UniProt Q03431); test: cAMP signaling dose-response in HKRK-B7 cells; type: cell-based; details: 15 min, 37° C., IBMX
T2 construct: expressed in transfected cells
T2 sequence (Q03431 27-593): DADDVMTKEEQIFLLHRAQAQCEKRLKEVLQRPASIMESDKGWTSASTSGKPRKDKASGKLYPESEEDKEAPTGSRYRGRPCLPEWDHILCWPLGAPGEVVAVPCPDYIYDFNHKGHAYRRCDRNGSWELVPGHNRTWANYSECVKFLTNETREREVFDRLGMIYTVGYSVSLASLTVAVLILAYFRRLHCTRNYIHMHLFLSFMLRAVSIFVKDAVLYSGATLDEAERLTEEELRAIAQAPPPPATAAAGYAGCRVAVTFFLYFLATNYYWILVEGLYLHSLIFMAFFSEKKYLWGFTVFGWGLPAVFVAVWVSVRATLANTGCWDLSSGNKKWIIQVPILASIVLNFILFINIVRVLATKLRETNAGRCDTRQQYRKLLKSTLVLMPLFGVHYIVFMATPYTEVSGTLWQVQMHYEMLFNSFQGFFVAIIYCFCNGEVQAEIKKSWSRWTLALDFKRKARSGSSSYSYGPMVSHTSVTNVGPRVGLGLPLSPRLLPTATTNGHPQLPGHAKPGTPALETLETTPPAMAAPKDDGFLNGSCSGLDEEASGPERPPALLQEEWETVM
Method: In the cAMP experiments of FIG. 14, HKRK-B7 were seeded in 96 well plates at 1×10^5 cells/well and incubated overnight. On the following day, the cells were washed once with […] of binding buffer (50 mM Tris-HCl, pH 7.7, 100 mM NaCl, 5 mM KCl, 2 mM CaCl2, 5% heat-inactivated horse serum, 0.5% heat-inactivated fetal bovine serum), followed by addition of 100 μl cAMP assay buffer (DMEM, 2 mM IBMX, 1 mg/ml bovine serum albumin, 35 mM Hepes-NaOH, pH 7.4) on ice. […] After removing the medium, the plates were placed on powdered dry ice to freeze the cells and then removed from dry ice. The cells were thawed with 50 μl of 50 mM HCl and frozen again on dry ice. The level of intracellular cAMP was measured with a commercially available cAMP EIA kit (Biotrack cAMP EIA system, GE Healthcare).
HKRK-B, which are LLC-PK1 cells over-expressing human PTH1 receptor at levels of 9.5×10^5 per cell were used in the cAMP signaling assay. The cells were cultured at 37° C. in a humidified atmosphere containing 5% CO2 in Dulbecco's modified Eagle's medium (DMEM), supplemented with 10% fetal bovine serum (Hyclone), 100 units/ml penicillin G, and 100 μg/ml streptomycin sulfate (Invitrogen Corp). […] All peptides were dissolved at 1 mM in 10 mM acetic acid, and stored at −80° C. The cAMP stimulation assay was performed as described above for HKRK-B7 cells. […] Cells were treated for 15 minutes at 37° C. with varying concentrations of ligands in the presence of IBMX.

[3] = molecular target: T3, human PTHR, G protein-uncoupled conformation (R^0) (Homo sapiens, UniProt Q03431); test: Competition binding to R0 conformation of hPTHR (COS-7 membranes, GTPγS, 125I-PTH(1-34) tracer); details: human PTH receptor on COS-7 cell membranes
T3 construct: expressed in transfected cells; host or cells: COS-7, transient (Fugene-6)
T3 sequence (Q03431 27-593): T2 sequence (Q03431 27-593)
Summary of the method: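 Bound versus free radioligand was separated by vacuum filtration after 90 min incubation of COS-7 hPTHR membranes (20-100 μg/mL) with tracer and competing peptides. Non-specific binding came from a saturating unlabeled analog.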

Compound | cAMP in HKRK-B7 cells Max (human PTH1 receptor) | reduction (magnitude) of FRET signal [2] | other results
CC[C@H](C)[C@H](NC(=O)[C@H](CCC(=O)O)NC(=O)[C@H](C)NC(=O)[C@@H](NC(=O)[C@H](Cc1c[nH]cn1)NC(=O)[C@@H](NC(=O)[C@H](CC(=O)O)NC(=O)[C@H](CCC(N)=O)NC(=O)[C@H](CC(C)C)NC(=O)[C@H](CCCCN)NC(=O)[C@H](CCCCN)NC(=O)[C@H](CCCNC(=N)N)NC(=O)[C@H](CC(C)C)NC(=O)[C@H](Cc1c[nH]c2ccccc12)NC(=O)[C@H](CCC(=O)O)NC(=O)[C@@H](NC(=O)[C@H](CCCNC(=N)N)NC(=O)[C@H](CCC(=O)O)NC(=O)[C@H](CCSC)NC(=O)[C@H](CO)NC(=O)[C@H](CC(N)=O)NC(=O)[C@H](CC(C)C)NC(=O)[C@H](Cc1c[nH]cn1)NC(=O)[C@H](CCCCN)NC(=O)CNC(=O)[C@H](CC(C)C)NC(=O)[C@H](CC(N)=O)NC(=O)[C@H](Cc1c[nH]cn1)NC(=O)[C@H](CCSC)NC(=O)[C@H](CC(C)C)NC(=O)[C@H](CCC(N)=O)NC(=O)[C@@H](NC(=O)[C@H](CCC(=O)O)NC(=O)[C@H](CO)NC(=O)[C@@H](NC(=O)[C@@H](N)CO)C(C)C)[C@@H](C)CC)C(C)C)[C@@H](C)CC)[C@@H](C)O)C(=O)O [PTH(1-30)/PTHrP(31-36)] | – | – | EC50 (human PTH receptor): 0.78 nM; IC50 [1]: 0.17 nM
[Aib^1,3,Gln^10,Har^11,Ala^12,Trp^14]rPTH(1-14)NH2 ([Aib]V[Aib]EIQLMHQ[hArg]AKW-NH2; N-terminus assumed; SMILES CC[C@H](C)[C@H](NC(=O)[C@H](CCC(=O)O)NC(=O)C(C)(C)NC(=O)[C@@H](NC(=O)C(C)(C)N)C(C)C)C(=O)N[C@@H](CCC(N)=O)C(=O)N[C@@H](CC(C)C)C(=O)N[C@@H](CCSC)C(=O)N[C@@H](Cc1c[nH]cn1)C(=O)N[C@@H](CCC(N)=O)C(=O)N[C@@H](CCCCNC(=N)N)C(=O)N[C@@H](C)C(=O)N[C@@H](CCCCN)C(=O)N[C@@H](Cc1c[nH]c2ccccc12)C(N)=O) [[Aib^1,3,M]PTH(1-14)] | – | ~5% | –
CC[C@H](C)[C@H](NC(=O)[C@H](CCC(=O)O)NC(=O)[C@H](C)NC(=O)[C@@H](NC(=O)[C@H](C)N)C(C)C)C(=O)N[C@@H](CCC(N)=O)C(=O)N[C@@H](CC(C)C)C(=O)N[C@@H](CCSC)C(=O)N[C@@H](Cc1c[nH]cn1)C(=O)N[C@@H](CCC(N)=O)C(=O)N[C@@H](CCCNC(=N)N)C(=O)N[C@@H](C)C(=O)N[C@@H](CCCCN)C(=O)N[C@@H](Cc1c[nH]c2ccccc12)C(=O)N[C@@H](CC(C)C)C(=O)N[C@@H](CC(N)=O)C(=O)N[C@@H](CO)C(=O)N[C@@H](CCSC)C(=O)N[C@@H](CCCNC(=N)N)C(=O)N[C@@H](CCCNC(=N)N)C(=O)N[C@H](C(=O)N[C@@H](CCC(=O)O)C(=O)N[C@@H](Cc1c[nH]c2ccccc12)C(=O)N[C@@H](CC(C)C)C(=O)N[C@@H](CCCNC(=N)N)C(=O)N[C@@H](CCCCN)C(=O)N[C@@H](CCCCN)C(=O)N[C@@H](CC(C)C)C(=O)N[C@@H](CCC(N)=O)C(=O)N[C@@H](CC(=O)O)C(=O)N[C@H](C(=O)N[C@@H](Cc1c[nH]cn1)C(=O)N[C@@H](CC(N)=O)C(=O)N[C@@H](Cc1ccccc1)C(=O)O)C(C)C)C(C)C [Mc-PTH34(R19), Mc-hPTH(1-34)OH] (H-AVAEIQLMHQRAKWLNSMRRVEWLRKKLQDVHNF-OH; N-terminus assumed) | 65.5 pm/well | – | –
CC[C@H](C)[C@H](NC(=O)[C@H](CCC(=O)O)NC(=O)[C@H](CO)NC(=O)[C@@H](NC(=O)[C@@H](N)CO)C(C)C)C(=O)N[C@@H](CCC(N)=O)C(=O)N[C@@H](CC(C)C)C(=O)N[C@@H](CCSC)C(=O)N[C@@H](Cc1c[nH]cn1)C(=O)N[C@@H](CC(N)=O)C(=O)N[C@@H](CC(C)C)C(=O)NCC(=O)N[C@@H](CCCCN)C(=O)N[C@@H](Cc1c[nH]cn1)C(=O)N[C@@H](CC(C)C)C(=O)N[C@@H](CC(N)=O)C(=O)N[C@@H](CO)C(=O)N[C@@H](CCSC)C(=O)N[C@@H](CCC(=O)O)C(=O)N[C@@H](CCCNC(=N)N)C(=O)N[C@H](C(=O)N[C@@H](CCC(=O)O)C(=O)N[C@@H](Cc1c[nH]c2ccccc12)C(=O)N[C@@H](CC(C)C)C(=O)N[C@@H](CCCNC(=N)N)C(=O)N[C@@H](CCCCN)C(=O)N[C@@H](CCCCN)C(=O)N[C@@H](CC(C)C)C(=O)N[C@@H](CCC(N)=O)C(=O)N[C@@H](CC(=O)O)C(=O)N[C@H](C(=O)N[C@@H](Cc1c[nH]cn1)C(=O)N[C@@H](CC(N)=O)C(=O)N[C@@H](Cc1ccccc1)C(=O)O)C(C)C)C(C)C [hPTH(1-34), Human parathyroid hormone (1-34)] | – | ~13% | FRET signal after exchange to ligand-free buffer, in words [2]: remained suppressed

The next lines start with results.

cAMP in HKRK-B7 cells Max (human PTH1 receptor) | Compound | reduction (magnitude) of FRET signal [2] | other results
63.8 pm/well | CC[C@H](C)[C@H](NC(=O)[C@H](CCC(=O)O)NC(=O)[C@H](C)NC(=O)[C@@H](NC(=O)[C@H](C)N)C(C)C)C(=O)N[C@@H](CCC(N)=O)C(=O)N[C@@H](CC(C)C)C(=O)N[C@@H](CCSC)C(=O)N[C@@H](Cc1c[nH]cn1)C(=O)N[C@@H](CCC(N)=O)C(=O)N[C@@H](CCCNC(=N)N)C(=O)NCC(=O)N[C@@H](CCCCN)C(=O)N[C@@H](Cc1c[nH]cn1)C(=O)N[C@@H](CC(C)C)C(=O)N[C@@H](CC(N)=O)C(=O)N[C@@H](CO)C(=O)N[C@@H](CCSC)C(=O)N[C@@H](CCC(=O)O)C(=O)N[C@@H](CCCNC(=N)N)C(=O)N[C@H](C(=O)N[C@@H](CCC(=O)O)C(=O)N[C@@H](C)C(=O)N[C@@H](CC(C)C)C(=O)N[C@@H](CCCNC(=N)N)C(=O)N[C@@H](CCCCN)C(=O)N[C@@H](CCCCN)C(=O)N[C@@H](CC(C)C)C(=O)N[C@@H](CCC(N)=O)C(=O)N[C@@H](CC(=O)O)C(=O)N[C@H](C(=O)N[C@@H](Cc1c[nH]cn1)C(=O)N[C@@H](CC(N)=O)C(=O)N[C@@H](Cc1ccccc1)C(=O)O)C(C)C)C(C)C [[A1,3,23,Q10,R11]-PTH(1-34)OH, [A^1,A^3,A^23,Q^10,R^11]-PTH(1-34)OH] | – | –
66.6 pm/well | CC[C@H](C)[C@H](NC(=O)[C@H](CCC(=O)O)NC(=O)[C@H](C)NC(=O)[C@@H](NC(=O)[C@H](C)N)C(C)C)C(=O)N[C@@H](CCC(N)=O)C(=O)N[C@@H](CC(C)C)C(=O)N[C@@H](CCSC)C(=O)N[C@@H](Cc1c[nH]cn1)C(=O)N[C@@H](CC(N)=O)C(=O)N[C@@H](CC(C)C)C(=O)NCC(=O)N[C@@H](CCCCN)C(=O)N[C@@H](Cc1c[nH]cn1)C(=O)N[C@@H](CC(C)C)C(=O)N[C@@H](CC(N)=O)C(=O)N[C@@H](CO)C(=O)N[C@@H](CCSC)C(=O)N[C@@H](CCC(=O)O)C(=O)N[C@@H](CCCNC(=N)N)C(=O)N[C@H](C(=O)N[C@@H](CCC(=O)O)C(=O)N[C@@H](C)C(=O)N[C@@H](CC(C)C)C(=O)N[C@@H](CCCNC(=N)N)C(=O)N[C@@H](CCCCN)C(=O)N[C@@H](CCCCN)C(=O)N[C@@H](CC(C)C)C(=O)N[C@@H](CCC(N)=O)C(=O)N[C@@H](CC(=O)O)C(=O)N[C@H](C(=O)N[C@@H](Cc1c[nH]cn1)C(=O)N[C@@H](CC(N)=O)C(=O)N[C@@H](Cc1ccccc1)C(=O)O)C(C)C)C(C)C [[A1,3,23]-PTH(1-34)OH, [A^1,A^3,A^23]-PTH(1-34)OH] (H-AVAEIQLMHNLGKHLNSMERVEALRKKLQDVHNF-OH; N-terminus assumed) | – | R0/RG ratio [3]: 4291
